# Legend:
# [1] = test system: HTB (bladder transitional cell carcinoma); assay: Clonogenic survival of human bladder transitional cell carcinoma cells; type: cell-based; conditions: FIG. 3A
# Protocol: (§1) The murine L929 cell line, a human breast adenocarcinoma cell line (MCF-7) and a human bladder transitional cell carcinoma cell line (RT-4) were used to test the compounds of the present invention. All cell lines were obtained from MA Bioproducts (Bethesda, Md.) and were routinely maintained in high-glucose Dulbecco's Modified Eagle's Minimum Essential Medium (DMEM) and 10% newborn calf serum (L929) or 10% fetal calf serum (MCF-7 and RT-4). A DOX-resistant cell line, L929/DOX, was prepared by treating the L929 cell line with gradually increasing concentrations of DOX in vitro until a cell line that grew at a concentration of 50 μg/ml DOX was attained. A resistant subclone was then treated once with 100 μg/ml of DOX. The surviving resistant population was used in subsequent experiments. The L929/DOX cells were maintained in DMEM medium supplemented with 10% fetal calf serum and lacking DOX.
# (§2) Cells from the stock cultures were plated in 35 mm plastic tissue culture dishes at a density of 1×10^5 /cm^2. After 1 to 2 days, when the monolayer had reached a final density of 2-3×10^5 /cm^2, the cultures were washed twice with Dulbecco's phosphate-buffered saline and 2 ml of serum-free DMEM was added. […] Plates were examined after staining with methylene blue, and clones containing more than 10 cells were counted. […]
# [2] = test system: HLC (lung carcinoma); assay: Clonogenic survival of human lung carcinoma cells; type: cell-based; conditions: FIG. 3C
# Protocol: (§3) Cells from the stock cultures were plated in 35 mm plastic tissue culture dishes at a density of 1×10^5 /cm^2. After 1 to 2 days, when the monolayer had reached a final density of 2-3×10^5 /cm^2, the cultures were washed twice with Dulbecco's phosphate-buffered saline and 2 ml of serum-free DMEM was added. […] After incubation for 3 hours at 37° C. in 10% CO2, the dishes were rinsed twice with phosphate-buffered saline (pH 7.4) to remove extracellular drugs, trypsinized, and plated for determination of clonogenic survival. Trypsinization involved dispersal of cells with 0.25% trypsin, followed by culture in DMEM plus 10% newborn calf serum for 7 days. Plates were examined after staining with methylene blue, and clones containing more than 10 cells were counted. The surviving fraction was the ratio of the plating efficiency of the cultures exposed to DOX divided by the plating efficiency of control cultures maintained in a medium of the same composition. Plating efficiency is defined as the number of colonies formed divided by the number of cells plated.
# [3] = test system: L929 cells; assay: Fluorescence uptake and localization of DOX and GLU-DOX in L929 cells; type: cell-based, murine
# Protocol: Cells were grown on 25 mm diameter microscope cover slips (Thomas, Sweedsboro, N.J.) in 35 mm tissue culture dishes. […] The wells were then rinsed two times with phosphate buffered saline and changed to fresh medium. After incubation for 0 h or 2 h, the cover slips were extracted from the plates, rinsed with PBS, mounted in an Attofluor cell chamber (Molecular Probes, Inc. Eugene, Oreg.), and examined by epifluorescence using a Zeiss microscope equipped with a 63× immersion oil objective. The combination of G546 excitation filer, FT580 dichroic mirror, and LP590 emission filter allowed efficient detection of doxorubicin fluorescence at 590 nm. The fluorescence was detected by a CCD72S camera (Dage-MTI, Inc, Michigan City, Ind.) and images were acquired and analyzed using OPTIMAS software (Optimas Corp., Seattle, Wash.). […] Area (A) per fluorescent image, i.e., per cell, and mean gray per image (MI) were measured for at least 20 cells. Mean gray for a background area containing no cell images (MB) was also determined. Fluorescence units (F.U.) per cell were calculated as: [formula]
# [4] = test system: MCF-7 (breast adenocarcinoma); assay: Clonogenic survival of human breast adenocarcinoma cells; type: cell-based; conditions: FIG. 3B
# Protocol: as §1, §2
# [5] = test system: L929/DOX cells; assay: Drug efflux from L929/DOX cells versus wild type cells; type: cell-based, murine
# Excerpt: The surviving resistant population was used in subsequent experiments.
# [6] = test system: tumor cell; assay: Antitumor cell activity of DOX modified with other aldehydes and crosslinking agents; type: cell-based; conditions: substituted for glutaraldehyde in the basic modification protocol
# Protocol: Other aldehydes and crosslinking agents that were substituted for glutaraldehyde in the basic modification protocol included acetaldehyde, butyraldehyde, hexanal, formaldehyde, succinyl chloride, glutaryl dichloride (all from Aldrich Chemical Co., Milwaukee, Wis.), DSG (disuccinimidyl glutarate), DMS (dimethylsuberimidate), and BS^3 (last three compounds from Pierce Chemical Co., Rockford, Ill.).
# as §3
compound,measurement,setting,value
"COc1cccc2c1C(=O)c1c(O)c3c(c(O)c1C2=O)C[C@@](O)(C(=O)CO)C[C@@H]3O[C@H]1C[C@H](N)[C@H](O)[C@H](C)O1 [DOX, doxorubicin]",sensitivity to DOX,[1],relatively insensitive
same,sensitivity to DOX,[2],relatively insensitive
same,Uptake: Mean Fluorescence Units per Cell,"[3]; 5 μg/ml, 3 h at 37° C.",124 ± 29 Fluorescence Units per Cell
same,Uptake: Mean Fluorescence Units per Cell,"[3]; 5 μg/ml, 3 h at 37° C. + 2 h chase",18 ± 6 Fluorescence Units per Cell
same,fluorescence after chase in drug-free medium,"[3]; 2 hr chase, FIGS. 4B, 4D",nearly all DOX was lost from the cytoplasmic compartment although some nuclear fluorescence was still detectable
same,subcellular distribution of fluorescence,"[3]; 3 h exposure, 5 μg/ml, FIGS. 4A, 4C",in both nucleus and cytoplasm with distinct paranuclear concentration in some cells
same,sensitivity to DOX,[4],relatively insensitive
same,drug efflux from L929/DOX relative to wild type cells,[5],pumped out of the L929/DOX cells much faster than out of the wild type cells
CCCCCC=O [hexanal],antitumor cell activity of the DOX reaction product relative to DOX,[6],"None of these compounds, when reacted with DOX, produced a derivative with increased antitumor cell activity relative to DOX"
COC(=O)c1ccccc1-c1c2ccc(=N)cc-2oc2cc(N)ccc12 [rhodamine 123],intracellular localization compared with rhodamine 123,"[3]; 2 h exposure, GLU-DOX (100:1) 5 μg/ml, rhodamine 123 10 μg/ml, FIGS. 5A, 5B",strikingly similar
O=C(Cl)CCC(=O)Cl [succinyl chloride],antitumor cell activity of the DOX reaction product relative to DOX,[6],"None of these compounds, when reacted with DOX, produced a derivative with increased antitumor cell activity relative to DOX"
acetaldehyde,antitumor cell activity of the DOX reaction product relative to DOX,[6],"None of these compounds, when reacted with DOX, produced a derivative with increased antitumor cell activity relative to DOX"
butyraldehyde,antitumor cell activity of the DOX reaction product relative to DOX,[6],"None of these compounds, when reacted with DOX, produced a derivative with increased antitumor cell activity relative to DOX"
formaldehyde,antitumor cell activity of the DOX reaction product relative to DOX,[6],"None of these compounds, when reacted with DOX, produced a derivative with increased antitumor cell activity relative to DOX"
glutaryl dichloride,antitumor cell activity of the DOX reaction product relative to DOX,[6],"None of these compounds, when reacted with DOX, produced a derivative with increased antitumor cell activity relative to DOX"

# — patent publication US6020316A, “Glutaraldehyde modified chemotherapeutic agents and methods of use thereof” (priority 1998, dated 2000)
